Experimental data published in US10550105B2 (Ribon Therapeutics Inc., priority 2018, dated 2020).

Columns and labels:
[1] = system: NCI-H1373 lung cancer cells; experiment: Inhibition of cancer cell growth in NCI-H1373 lung cancer cells (FIG. 2); type: cell-based, human
[2] = system: CT26 tumors; experiment: Inhibition of tumor growth, murine syngeneic model CT26 (subcutaneous dosing); type: in vivo; conditions: CT26 in BALB/c mice, vs vehicle (FIG. 6)
Procedure: For the CT26 study BALB/c mice were inoculated subcutaneously at the right flank with CT26 cells for tumor development. Four days after tumor inoculation, 36 mice with tumor size ranging from 40-55 mm^3 (average tumor size 47 mm^3) were selected and assigned into 3 groups using stratified randomization with 12 mice in each group based upon their tumor volumes. The treatments were started from the next day post randomization (defined randomization day as day 0) and were treated with vehicle (0.5% methylcellulose+0.2% Tween 80), Compound 98 (500 mg/kg S.C. QD*21 days), Compound 93A (100 mg/kg S.C. BID*21 days) respectively. The tumor sizes were measured three times per week during the treatment. The entire study was terminated on day 21. Mean tumor volume and SEM for both studies are plotted. Statistical significance, calculated using two-tailed unpaired t-tests in which each treatment group was compared to vehicle control, is indicated by an asterisk. Statistics were performed on groups with less than 20% animal loss (D21 for CT26, D17 for 4T1).

[3] = biological target: T1, PARP7 (Homo sapiens (Human), UniProt Q7Z3E1); experiment: Enzymatic assay for inhibition of PARP7: TR-FRET displacement of biotinylated Probe A from the TIPARP active site; type: binding; conditions: Table A-1
Outline: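 Percent inhibition derives from the ratio of 665 to 615 nm emission, which reports how much Probe A remains bound to TIPARP. Plates sat 30 min at 25° C before the time-resolved read (320 nm excitation).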

[4] = system: 4T1-luc2-1A4 tumors; experiment: Inhibition of tumor growth, murine syngeneic model 4T1 (orthotopic, mammary fat pad); type: in vivo; conditions: 4T1 orthotopic in female BALB/c mice, vs vehicle (FIG. 6)
Excerpt: Example G: Inhibition of Tumor Growth by Treatment with PARP7 Inhibitors For the 4T1 study female BALB/c mice were inoculated orthotopically in the mammary fat pad with 4T1-1uc2-1A4 cells for tumor development. Eight days after tumor inoculation, 45 mice with tumor size ranging from 63-88 mm^3 (average tumor size 67 mm^3) were selected and assigned into 3 groups using stratified randomization with 15 mice in each group based upon their tumor volumes. The treatments were started from the next day post randomization (defined randomization day as D0) and were treated with vehicle (0.5% methylcellulose +0.2% Tween 80), Compound 98 (500 mg/kg S.C. QD*21 days), Compound 93A (100 mg/kg S.C. BID*21 days) respectively. The tumor sizes were measured three times per week during the treatment. The entire study was terminated on D20. Mean tumor volume and SEM for both studies are plotted. Statistical significance, calculated using two-tailed unpaired t-tests in which each treatment group was compared to vehicle control, is indicated by an asterisk. Statistics were performed on groups with less than 20% animal loss (D21 for CT26, D17 for 4T1).

[5] = system: interferon-beta (IFN-β); experiment: Induction of interferon-beta levels in RAW264.7 macrophages in the presence of STING agonist DMXAA (FIG. 3); type: cell-based; conditions: RAW264.7 mouse macrophages
[6] = system: interferon-beta (IFN-β); experiment: Induction of interferon-beta levels in CT26 cells in the presence of STING agonist DMXAA (FIG. 3); type: cell-based; conditions: CT26 mouse colon cancer cells
[7] = biological target: T1, PARP7; experiment: Inhibition of PARP7 (Table A-1); type: biochemical; conditions: comparison of separated isomers, see Table A-1

T1 sequence (Q7Z3E1 whole entry): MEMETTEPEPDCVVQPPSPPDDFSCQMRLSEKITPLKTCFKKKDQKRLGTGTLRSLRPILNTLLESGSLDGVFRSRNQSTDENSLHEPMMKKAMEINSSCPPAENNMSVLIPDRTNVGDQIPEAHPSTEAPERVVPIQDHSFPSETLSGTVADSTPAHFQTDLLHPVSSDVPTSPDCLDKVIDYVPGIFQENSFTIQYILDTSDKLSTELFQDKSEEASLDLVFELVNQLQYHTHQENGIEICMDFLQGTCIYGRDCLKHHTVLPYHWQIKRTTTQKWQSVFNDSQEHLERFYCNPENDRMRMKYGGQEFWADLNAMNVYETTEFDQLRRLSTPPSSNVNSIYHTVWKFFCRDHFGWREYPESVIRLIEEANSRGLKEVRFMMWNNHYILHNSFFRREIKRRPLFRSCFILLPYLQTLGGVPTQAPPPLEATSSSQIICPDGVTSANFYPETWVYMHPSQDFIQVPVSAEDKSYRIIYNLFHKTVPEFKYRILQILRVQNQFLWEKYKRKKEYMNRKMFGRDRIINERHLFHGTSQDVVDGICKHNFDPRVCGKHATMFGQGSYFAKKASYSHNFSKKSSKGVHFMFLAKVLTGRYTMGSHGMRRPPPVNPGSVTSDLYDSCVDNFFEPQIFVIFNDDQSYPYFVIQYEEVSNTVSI

N#Cc1ccc(N2CCN(C(=O)CCOC[C@@H]3c4ccccc4CN3c3cn[nH]c(=O)c3C(F)(F)F)CC2)nc1 (single isomer, unassigned) [Example 93 Isomer A]
growth of NCI-H1373 lung cancer cells [1]: dose-dependent decrease in growth
tumor growth ([2]; 100 mg/kg S.C. BID*21 days): significantly reduce tumor growth
IC50 [3]: < 100 nM
tumor growth ([4]; 100 mg/kg S.C. BID*21 days): significantly reduce tumor growth

N#Cc1ccc(N2CCN(C(=O)c3cccc(OCCOc4cccc5c4CN(c4cn[nH]c(=O)c4C(F)(F)F)C5)c3)CC2)nc1 [Example 39, 6-[4-([3-[2-([2-[6-Oxo-5-(trifluoromethyl)-1,6-dihydropyridazin-4-yl]-2,3-dihydro-1H-isoindol-4-yl]oxy)ethoxy]phenyl]carbonyl)piperazin-1-yl]pyridine-3-carbonitrile]
growth of NCI-H1373 lung cancer cells [1]: dose-dependent decrease in growth
IC50 [3]: < 100 nM

N#Cc1ccc(N2CCN(C(=O)CCOC[C@@H]3CCCN3c3cn[nH]c(=O)c3C(F)(F)F)CC2)nc1 [Example 98, 6-[4-(3-[[(2S)-1-[6-Oxo-5-(trifluoromethyl)-1,6-dihydropyridazin-4-yl]pyrrolidin-2-yl]methoxy]propanoyl)piperazin-1-yl]pyridine-3-carbonitrile]
growth of NCI-H1373 lung cancer cells [1]: dose-dependent decrease in growth
interferon-beta (IFN-β) levels [5]: induction
tumor growth ([2]; 500 mg/kg S.C. QD*21 days): significantly reduce tumor growth
interferon-beta (IFN-β) levels [6]: induction
IC50 [3]: < 100 nM
tumor growth ([4]; 500 mg/kg S.C. QD*21 days): significantly reduce tumor growth

N#Cc1ccc(N2CCN(C(=O)C[C@H]3CC[C@@H]([C@@H]4CCCN4c4cn[nH]c(=O)c4C(F)(F)F)O3)CC2)nc1 [Example 141B, 6-(4-[2-[(2R,5S)-5-[(2S)-1-[6-oxo-5-(trifluoromethyl)-1,6-dihydropyridazin-4-yl]pyrrolidin-2-yl]oxolan-2-yl]acetyl]piperazin-1-yl)pyridine-3-carbonitrile]
relative potency of the enantiomers / diastereomers [7]: more potent enantiomer
IC50 [3]: < 100 nM

C[C@@H](COCCS(=O)(=O)N1CCN(c2ncc(C(F)(F)F)s2)CC1)Nc1cn[nH]c(=O)c1Cl [Example 731, (S)-4-Chloro-5-((1-(2-((4-(5-(trifluoromethyl)thiazol-2-yl)piperazin-1-yl)sulfonyl)ethoxy)propan-2-yl)amino)pyridazin-3(2H)-one]
IC50 [3]: < 100 nM

C[C@@H](COCCS(=O)(=O)N1CCN(c2ncc(C(F)(F)F)s2)CC1)Nc1cn[nH]c(=O)c1Br [Example 732, (S)-4-Bromo-5-((1-(2-((4-(5-(trifluoromethyl)thiazol-2-yl)piperazin-1-yl)sulfonyl)ethoxy)propan-2-yl)amino)pyridazin-3(2H)-one]
IC50 [3]: < 100 nM

Cc1cnc(N2CCN(C(=O)CCOC[C@H](C)Nc3cn[nH]c(=O)c3C(F)(F)F)CC2)s1 [Example 733, (S)-5-((1-(3-(4-(5-Methylthiazol-2-yl)piperazin-1-yl)-3-oxopropoxy)propan-2-yl)amino)-4-(trifluoromethyl)pyridazin-3(2H)-one]
IC50 [3]: < 100 nM
